Legend:
[1] = tested on: normal C57BL/6J splenic B-cells (AID+/+) versus splenic B-cells from AID−/− mice; test: screening of DIDS derivatives, MultiTox-Fluor Multiplex Cytotoxicity Assay; type: cell-based, mouse; conditions: 10, 50 or 150 μM, 4 days of stimulation with anti-CD40 plus IL-4
Method: To identify bioactive derivatives of DIDS, a library of 10^5 chemical variants of DIDS was generated by replacing the sulfonate or isothiocyanate group with other chemical entities, or by altering the double bond joining the two rings in the stilbene backbone. All compounds were resuspended in dimethyl sulfoxide (DMSO) at a stock concentration of […], and used by serial dilution to generate working concentrations of 10, 50, or 150 μM. These were individually pipetted into 96-well microtiter culture dishes in duplicate, generating two plates of 10 μM, two plates of 50 μM, and two plates of 150 μM compounds. In each set, one plate was seeded with 100,000 normal C57BL/6J splenic B-cells (AID+/+) isolated by magnetic bead based sorting to enrich for B220+ IgM+ B-cells; and one plate was seeded with 100,000 splenic B-cells from AID−/− mice identically isolated. Each culture was stimulated on day 0 by addition of 1 μg/ml anti-CD40 plus 25 ng/ml IL-4 to induce proliferation and class-switch recombination. After two days, each culture was re-stimulated by an additional 1 μg/ml anti-CD40 plus 25 ng/ml IL-4. After two additional days in culture, for a total of 4 days of stimulation, viable cell counts were determined in each well of each plate using the MultiTox-Fluor Multiplex Cytotoxicity Assay (Promega, Inc.). For viability measurements, 100 microliters of the 2× MultiTox-Fluor Multiplex Cytotoxicity Reagent was added to each well and mixed before incubating at 37° C. for 30 min. Plates were then transferred to a fluorescence-capable multiplate reader and analyzed using 400 nm excitation and detection of 505 nm emission to measure the fraction of remaining live cells. As controls, wells containing either vehicle alone (DMSO) or 150 μM DIDS were included on each plate. Viability scores for each compound were determined as the fraction of live cells in the normal B-cell plate divided by the fraction of live cells in the corresponding AID knockout plate. Compounds that produce normal/AID knockout ratios at or below the level of the DIDS ratio were considered candidate compounds for further validation and testing. […] The initial screen identified 10 derivatives, BB5-6, BB1-6, BB1-7, BB2-6, BB2-5, BB5-39, BB4B-2, BB5-4, BB5-47, and BB8-1 (FIG. 10).

[2] = tested on: U251, HT-29 and A549 tumor cells; conditions: cited from earlier work
[3] = tested on: primary AID-knockout mouse splenocytes; test: viability of activated AID-null splenocytes treated with NS-123 (Trypan blue); type: cell-based
Method: Primary mouse B-cells were isolated from spleens of adult AID−/− mice as described in Example 1. Cultures were established at a concentration of 1×10^6 cells per ml in RPMI-1640 medium with 10% FBS. Cultures were activated with anti-CD40 antibody plus IL-4, and treated with 4′-Bromo-3′ nitropropiophenone (NS-123) (purchased from Calbiochem; CAS No. 101860-83-7) at concentrations of 0.5, 5, 50, or 500 μM. Cells were re-activated by anti-CD40 plus IL-4 after two days in culture. Cell counts were determined after 1, 2, 3, and 4 days in culture by Trypan blue staining. At the concentration of 50 μM and 500 μM of NS-123 AID-null splenocytes were not viable. At the concentration of 5 μM of NS-123 the viability of the splenocytes is reduced when compared to untreated splenocytes (FIG. 12).
Primary AID-knockout mouse splenocytes were seeded in cultures at day 0 at a concentration of 1×10^6 cells/ml in RPMI-1640 medium supplemented with anti-CD40 plus IL-4 to activate B-cells. Individual cultures were supplemented with 0, 5, 10, 20, 30, 40, or 50 μM NS-123 and viable cells were counted after Trypan blue staining on days 1, 2, 3, and 4 (FIG. 13).

## CC(C)S(=O)(=O)Nc1ccc(/C=C/c2ccc(NS(=O)(=O)C(C)C)cc2)cc1 [BB1-6, (E)-N,N′-(ethene-1,2-diylbis(4,1-phenylene))bis(propane-2-sulfonamide)]
[1]
  viability score: fraction of live cells AID+/+ divided by fraction of live cells AID−/− (hit: ratio less than 1): identified

## CN(C)S(=O)(=O)Nc1ccc(/C=C/c2ccc(NS(=O)(=O)N(C)C)cc2)cc1 [BB1-7, (E)-N,N′-(ethene-1,2-diylbis(4,1-phenylene))bis(dimethylamino-sulfonamide)]
[1]
  viability score: fraction of live cells AID+/+ divided by fraction of live cells AID−/− (hit: ratio less than 1): identified

## CN(C)c1ccc(/C=C/c2ccc(NS(=O)(=O)C3CC3)cc2)cc1 [BB2-5, (E)-N-(4-(4-(dimethylamino)styryl)phenyl)cyclopropanesulfonamide]
[1]
  viability score: fraction of live cells AID+/+ divided by fraction of live cells AID−/− (hit: ratio less than 1): identified

## CC(C)S(=O)(=O)Nc1ccc(/C=C/c2ccc(N(C)C)cc2)cc1 [BB2-6, (E)-N-(4-(4-(dimethylamino)styryl)phenyl)propane-2-sulfonamide]
[1]
  viability score: fraction of live cells AID+/+ divided by fraction of live cells AID−/− (hit: ratio less than 1): identified

## CC(C)NC(=O)Nc1ccc(CCc2ccc(NC(=O)NC(C)C)cc2S(=O)(=O)[O-])c(S(=O)(=O)[O-])c1.[Na+].[Na+] [BB4B-2, sodium 6,6′-(ethane-1,2-diyl)bis(3-(3-isopropylureido)benzenesulfonate)]
[1]
  viability score: fraction of live cells AID+/+ divided by fraction of live cells AID−/− (hit: ratio less than 1): identified

## CC(=O)Nc1ccc(/C=C/c2ccc(NS(=O)(=O)C3CC3)cc2S(=O)(=O)[O-])c(S(=O)(=O)[O-])c1.[Na+].[Na+] [BB5-4, sodium (E)-5-acetamido-2-(4-(cyclopropanesulfonamido)-2-sulfonatostyryl)benzenesulfonate]
[1]
  viability score: fraction of live cells AID+/+ divided by fraction of live cells AID−/− (hit: ratio less than 1): identified

## CC(=O)Nc1ccc(/C=C/c2ccc(NS(=O)(=O)N(C)C)cc2S(=O)(=O)[O-])c(S(=O)(=O)[O-])c1.[Na+].[Na+] [BB5-6, sodium (E)-5-acetamido-2-(4-((N,N-dimethylsulfamoyl)amino)-2-sulfonatostyryl)benzenesulfonate]
[1]
  viability score: fraction of live cells AID+/+ divided by fraction of live cells AID−/− (hit: ratio less than 1): identified

## CC(C)S(=O)(=O)Nc1ccc(/C=C/c2ccc(NC(=S)NC3CC3)cc2S(=O)(=O)[O-])c(S(=O)(=O)[O-])c1.[Na+].[Na+] [BB5-39, sodium (E)-5-(3-cyclopropylthioureido)-2-(4-(1-methylethylsulfonamido)-2-sulfonatostyryl)benzenesulfonate]
[1]
  viability score: fraction of live cells AID+/+ divided by fraction of live cells AID−/− (hit: ratio less than 1): identified

## CCNC(=O)Nc1ccc(/C=C/c2ccc(NC(=O)COC)cc2S(=O)(=O)[O-])c(S(=O)(=O)[O-])c1.[Na+].[Na+] [BB5-47, sodium (E)-5-(3-ethylureido)-2-(4-(2-methoxyacetamido)-2-sulfonatostyryl)benzenesulfonate]
[1]
  viability score: fraction of live cells AID+/+ divided by fraction of live cells AID−/− (hit: ratio less than 1): identified

## CNC(=O)c1ccc(/C=C/c2ccc(C(=O)NC)cc2)cc1 [BB8-1, (E)-4,4′-(ethene-1,2-diyl)bis(N-methylbenzamide)]
[1]
  viability score: fraction of live cells AID+/+ divided by fraction of live cells AID−/− (hit: ratio less than 1): identified

## CCC(=O)c1ccc(Br)c([N+](=O)[O-])c1 [NS-123, 1-(4-bromo-3-nitrophenyl)propan-1-one]
[2]; U251, HT-29 and A549 tumor cells
  concentration enhancing tumor growth-inhibitory effects of ionizing radiation: ~5 µM
[2]; normal human glial cells, Zebrafish embryos and nude mice
  effect on normal cells and organisms: no apparent effect
[3]; 5 μM NS-123, compared to untreated splenocytes
  viability of AID-null splenocytes: reduced
[3]; 50 μM NS-123, activated with anti-CD40 plus IL-4
  viability of AID-null splenocytes: not viable
[3]; 500 μM NS-123, activated with anti-CD40 plus IL-4
  viability of AID-null splenocytes: not viable
[3]; AID-null splenocytes, activated with anti-CD40 plus IL-4
  LD50: 14 µM

Reference: US10207988B2, “Methods and compositions for treatment of cancer and autoimmune disease” (THE JACKSON LABORATORY, priority 2011, dated 2019)
